# Laboratory results: ChEMBL document CHEMBL2150939, “Synthesis and cytotoxicity of novel ursolic acid derivatives containing an acyl piperazine moiety” (Eur J Med Chem, 2012)
# Activity calls are given as the source filed them. The rule behind the calls is not given here.
# Tests used:
# MGC-803 [1] = test: Growth inhibition of human MGC803 cells at 10 uM after 72 hrs by MTT assay; assay type: functional; conditions: MGC-803, 72 h, read-out: GI
# Bcap37 [2] = test: Growth inhibition of human Bcap37 cells at 10 uM after 72 hrs by MTT assay; assay type: functional; conditions: Bcap37, 72 h, read-out: GI
# [3] = Growth inhibition of mouse NIH/3T3 cells at 10 uM after 72 hrs by MTT assay; assay type: cell-based, NIH3T3; conditions: read-out: GI
# MGC-803 [4] = test: Antiproliferative activity against human MGC803 cells after 72 hrs by MTT assay; assay type: functional, cell-based; conditions: MGC-803, 72 h
# Bcap37 [5] = test: Antiproliferative activity against human Bcap37 cells after 72 hrs by MTT assay; assay type: functional, cell-based; conditions: Bcap37, 72 h, read-out: IC50
# MGC-803 [6] = test: Induction of apoptosis in human MGC803 cells assessed as pyknosis at 10 uM after 48 hrs by acridine orange/ethidium bromide staining; assay type: functional, cell-based
# MGC-803 [7] = test: Induction of apoptosis in human MGC803 cells assessed as condensed chromatin at 10 uM after 48 hrs by Hoechst 33258 staining; assay type: functional, cell-based
# MGC-803 [8] = test: Induction of apoptosis in human MGC803 cells assessed as DNA fragmentation at 10 uM after 24 hrs by TUNEL assay; assay type: functional, cell-based
# MGC-803 [9] = test: Induction of apoptosis in human MGC803 cells assessed as membrane blebbing at 10 uM after 48 hrs by acridine orange/ethidium bromide staining; assay type: functional, cell-based
# MGC-803 [10] = test: Induction of apoptosis in human MGC803 cells assessed as cell budding at 10 uM after 48 hrs by acridine orange/ethidium bromide staining; assay type: functional, cell-based
# MGC-803 [11] = test: Induction of apoptosis in human MGC803 cells assessed as pyknosis at 5 uM after 12 to 48 hrs by acridine orange/ethidium bromide staining; assay type: functional, cell-based
# MGC-803 [12] = test: Induction of apoptosis in human MGC803 cells assessed as early apoptotic cells at 5 uM after 24 hrs by acridine orange/ethidium bromide staining; assay type: functional, cell-based
# MGC-803 [13] = test: Induction of apoptosis in human MGC803 cells assessed as late apoptotic cells at 5 uM after 48 hrs by acridine orange/ethidium bromide staining; assay type: functional, cell-based
# MGC-803 [14] = test: Induction of apoptosis in human MGC803 cells assessed as condensed chromatin at 5 uM after 12 to 48 hrs by Hoechst 33258 staining; assay type: functional, cell-based
# MGC-803 [15] = test: Induction of apoptosis in human MGC803 cells assessed as DNA fragmentation at 2.5 to 10 uM after 24 hrs by TUNEL assay; assay type: functional, cell-based
# MGC-803 [16] = test: Induction of apoptosis in human MGC803 cells assessed as early and late apoptotic level at 10 uM after 12 hrs by annexinV/FITC-PI staining-based flow cytometric analysis; assay type: functional
# MGC-803 [17] = test: Induction of apoptosis in human MGC803 cells assessed as early and late apoptotic level at 10 uM after 24 hrs by annexinV/FITC-PI staining-based flow cytometric analysis; assay type: functional
# MGC-803 [18] = test: Induction of apoptosis in human MGC803 cells assessed as early and late apoptotic level at 10 uM after 36 hrs by annexinV/FITC-PI staining-based flow cytometric analysis; assay type: functional
# MGC-803 [19] = test: Induction of apoptosis in human MGC803 cells at 10 uM by annexinV/FITC-PI staining-based flow cytometric analysis; assay type: functional, cell-based; conditions: TDE = time-dependent effect
# MGC-803 [20] = test: Induction of apoptosis in human MGC803 cells assessed as membrane blebbing at 5 uM after 12 to 48 hrs by acridine orange/ethidium bromide staining; assay type: functional, cell-based
# MGC-803 [21] = test: Induction of apoptosis in human MGC803 cells assessed as cell budding at 5 uM up to 48 hrs by acridine orange/ethidium bromide staining; assay type: functional, cell-based
# MGC-803 [22] = test: Induction of apoptosis in human MGC803 cells assessed as cell budding at 5 uM at 24 hrs by acridine orange/ethidium bromide staining
smiles,measurement,setting,value
C[C@H]1[C@H](C)CC[C@]2(C(=O)O)CC[C@]3(C)C(=CC[C@@H]4[C@@]5(C)CC[C@H](O)C(C)(C)[C@@H]5CC[C@]43C)[C@H]12 [URSOLIC ACID],inhibition of growth at 10 µM,MGC-803 [1],28.9%
same,inhibition of growth at 10 µM,Bcap37 [2],11.9%
same,"inhibition at 72 h, 10 µM",[3],14%
same,IC50,MGC-803 [4],24.3 µM
same,IC50,Bcap37 [5],28.7 µM
same,Activity,MGC-803 [6],Active
same,Activity,MGC-803 [7],Active
same,Activity,MGC-803 [8],Active
same,Activity,MGC-803 [9],Active
same,Activity,MGC-803 [10],Active
C[C@H]1[C@H](C)CC[C@]2(C(=O)OCCN3CCN(C(=O)c4c(Cl)cccc4Cl)CC3)CC[C@]3(C)C(=CC[C@@H]4[C@@]5(C)CC[C@H](O)C(C)(C)[C@@H]5CC[C@]43C)[C@H]12,inhibition of growth at 10 µM,MGC-803 [1],95.6%
same,inhibition of growth at 10 µM,Bcap37 [2],76%
same,"inhibition at 72 h, 10 µM",[3],32.1%
same,IC50,MGC-803 [4],2.5 µM
same,IC50,Bcap37 [5],9.24 µM
same,Activity,MGC-803 [11],Active
same,Activity,MGC-803 [12],Active
same,Activity,MGC-803 [13],Active
same,Activity,MGC-803 [14],Active
same,Activity,MGC-803 [15],Active
same,Activity,MGC-803 [16],23.57%
same,Activity,MGC-803 [17],28.01%
same,Activity,MGC-803 [18],33.35%
same,Activity,MGC-803 [19],tde
same,Activity,MGC-803 [20],Active
same,Activity,MGC-803 [21],Active
same,Activity,MGC-803 [22],Active
